In US20250326748A1, “COMPOUNDS AND METHODS FOR MODULATING SPLICING” (REMIX THERAPEUTICS INC., priority 2022, published 2025):
Where a name gives a salt, the structure may show the parent alone. Read-outs that look alike come from different tables or passages of the source.

Experiments:
[1] = system: HTT mRNA; experiment: Splicing RT-qPCR assay, HTT canonical (CJ) and alternative (AJ) junction mRNA; assay type: cell-based, human; conditions: Homo sapiens; for IC50: canonical junction mRNA; for AC50: alternative junction mRNA, read-out: HTT AJ (AC50, increase in AJ mRNA)
In short: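 Read-out: one-step RT-qPCR on crude lysates measuring exon-exon junction isoforms, CJ for the canonical transcript and AJ for compound-induced exon inclusion. Normalization used PPIA for adherent A673 and GAPDH or GUSB for K562. Cells received 11 doses, 3-fold apart, top 10 uM, for 24 h.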

[2] = system: SMN2 mRNA; experiment: Splicing RT-qPCR panel, SMN2 canonical junction (CJ) mRNA; assay type: cell-based, human; conditions: Homo sapiens, read-out: SMN2 CJ (decrease in CJ mRNA levels, IC50)
In short: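 A673 cells (DMEM, 10% FBS) or K562 cells (IMDM, 10% FBS) treated 24 h at 37 °C with an 11-point 3-fold dilution, top 10 uM, DMSO ≤0.25%. Canonical-junction mRNA quantified in lysates by RT-qPCR, normalised to GAPDH, GUSB or PPIA and to DMSO (2^−ΔΔCt), then converted to % response.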

[3] = 24 h, RT-qPCR, A673 or K562 cells, 24 hours treatment, read-out: HTT CJ (IC50, decrease in CJ mRNA)
[4] = qPCR panel, read-out: HTT CJ (decrease in CJ mRNA levels, IC50)
[5] = RT-qPCR, A673 or K562 cells, 24 hours treatment

IC50 [1, 3] | IC50 [1, 4] | IC50 [2] | SMILES | AC50 [1, 5]
100 to 1000 nM | 100 to 1000 nM | < 100 nM | Cc1c(O)c(-c2cc(Cl)c3cc(N4CCC(N(C)C)C4)cnc3n2)cc2cn(C)nc12 (stereo not shown) [Compound 143, 5-{4-chloro-6-[3-(dimethylamino)357pyrrolidine-1-yl]-1,8-naphthyridin-2-yl}-2,7-dimethylindazol-6-ol] | 100 to 1000 nM
100 to 1000 nM | 100 to 1000 nM | < 100 nM | Cn1cc2cc(-c3ccc4cc(NC5CCNCC5)cnc4n3)c(O)c(F)c2n1 [Compound 285] | 100 to 1000 nM
100 to 1000 nM | 1000 to 10000 nM | < 100 nM | C[C@@H]1CN(c2cnc3nc(-c4cc5cn(C)nc5cc4O)ccc3c2)C[C@H](C)N1 [Compound 343] | 1000 to 10000 nM
< 100 nM | < 100 nM | < 100 nM | CCNC1CCN(c2cnc3nc(-c4cc5cn(C)nc5c(C)c4O)ccc3c2)C1 (stereo not shown) [Compound 122, 5-{6-[3-(ethylamino)pyrrolidin-1-yl]-1,8-naphthyridin-2-yl}-2,7-dimethylindazol-6-ol] | < 100 nM
100 to 1000 nM | 100 to 1000 nM | < 100 nM | CCN[C@H]1CCN(c2cnc3nc(-c4cc5cn(C)nc5c(C)c4O)ccc3c2)C1 [Compound 123] | 100 to 1000 nM
1000 to 10000 nM | 1000 to 10000 nM | 100 to 1000 nM | Cc1cn2nc(-c3cnc4nc(C5CCNCC5)ccc4c3)cc(C)c2n1 [Compound 115, 6-(2,8-dimethylimidazo[1,2-b]pyridazin-6-yl)-2-(piperidin-4-yl)-1,8-naphthyridine] | > 10000 nM
100 to 1000 nM | 100 to 1000 nM | < 100 nM | CCNC1CCN(c2cnc3nc(-c4cc5cn(C)nc5c(F)c4O)ccc3c2)C1 (stereo not shown) [Compound 106, 5-{6-[3-(ethylamino)pyrrolidin-1-yl]-1,8-naphthyridin-2-yl}-7-fluoro-2-methylindazol-6-ol] | 100 to 1000 nM
> 10000 nM | > 10000 nM | < 100 nM | C[C@@H]1CN(c2cnc3nc(-c4ccc5nn(C)cc5c4)cc(Cl)c3c2)C[C@H](C)N1 [Compound 320, 4-chloro-6-[(3R,5S)-3,5-dimethylpiperazin-1-yl]-2-(2-methylindazol-5-yl)-1,8-naphthyridine] | > 10000 nM
100 to 1000 nM | 100 to 1000 nM | – | Cc1cn2cc(-c3cc(Cl)c4cc(N5C[C@H](C)N[C@@H](C)C5)cnc4n3)cc(F)c2n1 [Compound 298] | 100 to 1000 nM
< 100 nM | < 100 nM | < 100 nM | CCN[C@@H]1CCN(c2cnc3nc(-c4cc5cn(C)nc5cc4O)cc(Cl)c3c2)C1 [Compound 317] | < 100 nM
100 to 1000 nM | 100 to 1000 nM | < 100 nM | CN[C@@H]1CN(c2cnc3nc(-c4cc5cn(C)nc5c(C)c4O)ccc3c2)C[C@@H]1F [Compound 132, 5-{6-[(3S,4R)-3-fluoro-4-(methylamino)pyrrolidin-1-yl]-1,8-naphthyridin-2-yl}-2,7-dimethylindazol-6-ol] | 100 to 1000 nM
100 to 1000 nM | 100 to 1000 nM | < 100 nM | Cc1cn2nc(-c3ccc4cc(N5C[C@@H](C)N[C@@H](C)C5)cnc4n3)cc(C)c2n1 [Compound 330] | 100 to 1000 nM
100 to 1000 nM | 100 to 1000 nM | < 100 nM | CN[C@H]1CN(c2cnc3nc(-c4cc5cn(C)nc5c(C)c4O)ccc3c2)C[C@H]1F [Compound 129, 5-{6-[(3R,4S)-3-fluoro-4-(methylamino)pyrrolidin-1-yl]-1,8-naphthyridin-2-yl}-2,7-dimethylindazol-6-ol] | 100 to 1000 nM
100 to 1000 nM | 100 to 1000 nM | < 100 nM | CN(c1cnc2nc(-c3cc4cn(C)nc4c(F)c3O)cc(Cl)c2c1)[C@@H]1CCNC1 [Compound 276] | 100 to 1000 nM
1000 to 10000 nM | 1000 to 10000 nM | < 100 nM | CN(c1cnc2nc(-c3cc4cn(C)nc4c(F)c3O)cc(Cl)c2c1)[C@H]1CCNC1 [Compound 275] | 1000 to 10000 nM
100 to 1000 nM | 100 to 1000 nM | < 100 nM | CNC1CCN(c2cnc3nc(-c4cc5cn(C)nc5c(C)c4O)ncc3c2)C1 (stereo not shown) [Compound 104, 2,7-dimethyl-5-{6-[3-(methylamino)pyrrolidin-1-yl]pyrido[2,3-d]pyrimidin-2-yl}indazol-6-ol] | 100 to 1000 nM
1000 to 10000 nM | 1000 to 10000 nM | < 100 nM | CN[C@@H]1CCN(c2cnc3nc(-c4cc(C)c5nc(C)cn5n4)ccc3c2)C1 [Compound 117] | 100 to 1000 nM

IC50 [1, 3] | IC50 [1, 4] | IC50 [2] | SMILES | AC50 [1, 5]
1000 to 10000 nM | 1000 to 10000 nM | < 100 nM | Cc1cn2cc(-c3cc(Cl)c4cc(N5C[C@@H](C)N[C@@H](C)C5)cnc4n3)cc(F)c2n1 [Compound 297] | 1000 to 10000 nM
100 to 1000 nM | 100 to 1000 nM | – | Cc1c(O)c(-c2cc(Cl)c3cc(N4CCNC5(CC5)C4)cnc3n2)cc2cn(C)nc12 [Compound 381] | 100 to 1000 nM
< 100 nM | < 100 nM | < 100 nM | Cc1c(O)c(-c2ccc3cc(N4CC[C@@H](NCC5CC5)C4)cnc3n2)cc2cn(C)nc12 [Compound 118] | < 100 nM
< 100 nM | < 100 nM | < 100 nM | C[C@H]1CN(c2cnc3nc(-c4cc5cn(C)nc5c(F)c4O)cc(Cl)c3c2)C[C@H](C)N1 [Compound 280] | < 100 nM
100 to 1000 nM | 100 to 1000 nM | < 100 nM | CCN[C@H]1CCN(c2cnc3nc(-c4cc5cn(C)nc5cc4O)ccc3c2)C1 [Compound 311, 5-{6-[(3S)-3-(ethylamino)pyrrolidin-1-yl]-1,8-naphthyridin-2-yl}-2-methylindazol-6-ol hydrochloride] | 1000 to 10000 nM
100 to 1000 nM | 100 to 1000 nM | < 100 nM | CN[C@H]1CCN(c2cnc3nc(-c4cc(C)c5nc(C)cn5n4)cc(Cl)c3c2)C1 [Compound 340] | 100 to 1000 nM
100 to 1000 nM | 100 to 1000 nM | < 100 nM | Cn1cc2cc(-c3ccc4cc(N5CC[C@H](NCC6CC6)C5)cnc4n3)c(O)cc2n1 [Compound 314] | 100 to 1000 nM
< 100 nM | < 100 nM | < 100 nM | CN[C@@H]1CCN(c2cnc3nc(-c4cc(C)c5nc(C)cn5n4)cc(Cl)c3c2)C1 [Compound 341] | < 100 nM
100 to 1000 nM | 100 to 1000 nM | < 100 nM | Cc1c(O)c(-c2cc(Cl)c3cc(NC4CCNC4)cnc3n2)cc2cn(C)nc12 (stereo not shown) [Compound 146, 5-[4-chloro-6-(359pyrrolidine-3-ylamino)-1,8-naphthyridin-2-yl]-2,7-dimethylindazol-6-ol] | 100 to 1000 nM
< 100 nM | < 100 nM | < 100 nM | Cn1cc2cc(-c3ccc4cc(N5CC[C@@H](NCC6CC6)C5)cnc4n3)c(O)c(F)c2n1 [Compound 135, 5-{6-[(3R)-3-[(cyclopropylmethyl)amino]330pyrrolidine-1-yl]-1,8-naphthyridin-2-yl}-7-fluoro-2-methylindazol-6-ol] | < 100 nM
< 100 nM | < 100 nM | < 100 nM | CN[C@H]1CCN(c2cnc3nc(-c4cc5cn(C)nc5c(C)c4O)cc(Cl)c3c2)C1.Cl [Compound 287] | 100 to 1000 nM
1000 to 10000 nM | 1000 to 10000 nM | < 100 nM | CN1CCC[C@H]2CN(c3cnc4nc(-c5cc6cn(C)nc6c(F)c5O)cc(Cl)c4c3)C[C@H]21 [Compound 304] | 1000 to 10000 nM
100 to 1000 nM | 100 to 1000 nM | < 100 nM | Cc1c(O)c(-c2ccc3cc(N4CCC(N(C)C)CC4)cnc3n2)cc2cn(C)nc12 [Compound 138, 5-{6-[4-(dimethylamino)piperidin-1-yl]-1,8-naphthyridin-2-yl}-2,7-dimethylindazol-6-ol] | 1000 to 10000 nM
< 100 nM | < 100 nM | < 100 nM | CN[C@H]1CCN(c2cnc3nc(-c4cc(C)c5nc(C)cn5n4)ccc3c2)C1 [Compound 116] | < 100 nM
100 to 1000 nM | 100 to 1000 nM | < 100 nM | Cc1cn2nc(-c3cc(Cl)c4cc(N5CCC(N(C)C)CC5)cnc4n3)cc(C)c2n1 [Compound 348] | 100 to 1000 nM
100 to 1000 nM | 100 to 1000 nM | – | Cc1cn2nc(-c3ccc4c(Cl)c(N5C[C@H](C)N[C@@H](C)C5)cnc4n3)cc(C)c2n1 [Compound 393, 5-chloro-2-{2,8-dimethylimidazo[1,2-b]pyridazin-6-yl}-6-[(3S,5S)-3,5-dimethylpiperazin-1-yl]-1,8-naphthyridine] | 100 to 1000 nM
100 to 1000 nM | 100 to 1000 nM | – | Cc1cn2nc(-c3cc(Cl)c4cc(N5C[C@H](C)N[C@@H](C)C5)cnc4n3)cc(C)c2n1 [Compound 336] | 100 to 1000 nM

SMILES | IC50 [1, 3] | IC50 [1, 4] | IC50 [2] | AC50 [1, 5]
CN(c1cnc2nc(-c3cc4cn(C)nc4c(F)c3O)ccc2c1)C1CCNCC1 [Compound 284] | 1000 to 10000 nM | 1000 to 10000 nM | < 100 nM | 1000 to 10000 nM
